According to ChEMBL document CHEMBL3588758, “Structure-Affinity Relationships (SARs) and Structure-Kinetics Relationships (SKRs) of Kv11.1 Blockers” (J Med Chem, 2015):

Legend:
Kv11.1 (KCNH2, hERG) [1] = target: T1, Kv11.1 (KCNH2, hERG) (Homo sapiens, UniProt Q12809); experiment: in vitro
Kv11.1 (KCNH2, hERG) [2] = target: T1, Kv11.1 (KCNH2, hERG); experiment: in vitro; remark: listed apart in the source
Kv11.1 (KCNH2, hERG) [3] = target: T1, Kv11.1 (KCNH2, hERG); experiment: in vitro; remark: listed apart in the source
[4] = target: T2, Voltage-gated inwardly rectifying potassium channel KCNH2 (Homo sapiens, UniProt Q12809)
T2 sequence (Q12809 whole entry): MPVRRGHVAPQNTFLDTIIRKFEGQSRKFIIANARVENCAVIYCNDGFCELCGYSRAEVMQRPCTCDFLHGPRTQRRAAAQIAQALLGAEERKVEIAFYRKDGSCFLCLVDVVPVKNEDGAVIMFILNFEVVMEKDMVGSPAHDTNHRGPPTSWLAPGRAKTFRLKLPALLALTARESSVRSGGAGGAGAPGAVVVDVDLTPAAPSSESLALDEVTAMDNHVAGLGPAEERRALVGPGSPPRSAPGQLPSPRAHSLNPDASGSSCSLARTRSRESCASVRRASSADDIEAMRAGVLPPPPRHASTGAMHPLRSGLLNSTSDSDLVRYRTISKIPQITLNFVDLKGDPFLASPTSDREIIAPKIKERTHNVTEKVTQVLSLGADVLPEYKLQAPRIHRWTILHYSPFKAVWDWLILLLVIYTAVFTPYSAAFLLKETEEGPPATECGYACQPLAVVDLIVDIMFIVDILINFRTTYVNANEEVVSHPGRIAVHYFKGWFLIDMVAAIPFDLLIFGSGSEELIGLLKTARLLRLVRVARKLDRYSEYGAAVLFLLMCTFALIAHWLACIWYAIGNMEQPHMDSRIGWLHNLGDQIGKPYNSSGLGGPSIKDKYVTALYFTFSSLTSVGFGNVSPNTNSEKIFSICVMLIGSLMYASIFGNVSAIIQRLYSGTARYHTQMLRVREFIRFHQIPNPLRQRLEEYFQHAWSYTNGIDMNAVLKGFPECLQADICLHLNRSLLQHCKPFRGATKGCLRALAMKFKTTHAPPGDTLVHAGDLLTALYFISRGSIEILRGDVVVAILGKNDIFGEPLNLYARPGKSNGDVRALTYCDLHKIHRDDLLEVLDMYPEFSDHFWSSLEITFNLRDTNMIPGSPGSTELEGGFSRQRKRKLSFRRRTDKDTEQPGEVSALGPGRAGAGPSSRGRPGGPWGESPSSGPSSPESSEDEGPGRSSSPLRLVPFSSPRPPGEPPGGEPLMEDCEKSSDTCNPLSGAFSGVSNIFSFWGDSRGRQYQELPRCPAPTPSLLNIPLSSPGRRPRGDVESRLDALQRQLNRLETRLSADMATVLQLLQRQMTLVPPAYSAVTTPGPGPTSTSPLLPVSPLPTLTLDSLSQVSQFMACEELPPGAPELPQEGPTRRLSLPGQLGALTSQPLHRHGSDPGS

[5] = target: T2, Voltage-gated inwardly rectifying potassium channel KCNH2; remark: listed apart in the source
[6] = target: T2, Voltage-gated inwardly rectifying potassium channel KCNH2; remark: listed apart in the source
Description: Inhibition of human Kv11.1 expressed in HEK293 cells assessed as inhibition of channel tail current at holding potential -80 mV by whole cell voltage clamp assay

T1 sequence (Q12809 whole entry): as above

Row | Structure (SMILES) | kon (Kv11.1 (KCNH2, hERG) [1]; hek293, probe [3H]dofetilide) [M⁻¹ s⁻¹] | koff (Kv11.1 (KCNH2, hERG) [2]; hek293, probe [3H]dofetilide) [s⁻¹] | residence time (Kv11.1 (KCNH2, hERG) [3]; hek293, probe [3H]dofetilide) [min] | Ki [4] [nM] | Kd [5] [nM] | kon (Kv11.1 (KCNH2, hERG) [1]; hek293) [M⁻¹ s⁻¹] | koff (Kv11.1 (KCNH2, hERG) [2]; hek293) [s⁻¹] | residence time (Kv11.1 (KCNH2, hERG) [3]; hek293) [min] | IC50 [6] [nM]
1 | C[n+]1c(C#Cc2ccc(-c3ccc(O)cc3)cc2)cccc1C#Cc1ccc(-c2ccc(O)cc2)cc1 | 8500 | 0.000883 | 19 | 153 | 103 |  |  |  | 
2 | C[n+]1c(C#Cc2ccc(-c3cccc(Cl)c3)cc2)cccc1C#Cc1ccc(-c2cccc(Cl)c2)cc1 |  |  |  | 139 | 135 | 1380 | 0.000183 | 91 | 
3 | CCN(CCOc1ccc([N+](=O)[O-])cc1)CCc1ccc([N+](=O)[O-])cc1 | 2.5e+06 | 0.00433 | 3.8 | 4.2 | 3 |  |  |  | 
4 | C[n+]1c(CCc2ccc(-c3ccccc3)cc2)cccc1CCc1ccc(-c2ccccc2)cc1 | 26700 | 0.00163 | 10 | 63 | 60 |  |  |  | 
5 | CN(CCCCOc1ccc([N+](=O)[O-])cc1)CCc1ccc([N+](=O)[O-])cc1 |  |  |  | 1.6 | 0.73 | 1.07e+07 | 0.00433 | 3.8 | 
6 | CCCCCCCCCCC#Cc1cccc(C#CCCCCCCCCCC)[n+]1C | 550 | 0.002 | 8.3 | 1180 | 4260 |  |  |  | 
7 | N#CCN(CCOc1ccc([N+](=O)[O-])cc1)CCc1ccc([N+](=O)[O-])cc1 |  |  |  | 203 | 99 | 76700 | 0.00667 | 2.5 | 
8 | COc1cccc(-c2ccc(C#Cc3cccc(C#Cc4ccc(-c5cccc(OC)c5)cc4)[n+]3C)cc2)c1 |  |  |  | 176 | 125 | 6170 | 0.000783 | 21 | 
9 | CC(=O)N(CCOc1ccc([N+](=O)[O-])cc1)CCc1ccc([N+](=O)[O-])cc1 | 163000 | 0.03 | 0.56 | 251 | 132 |  |  |  | 
10 | C[n+]1c(C#Cc2ccc(-c3ccc(Cl)cc3)cc2)cccc1C#Cc1ccc(-c2ccc(Cl)cc2)cc1 |  |  |  | 71 | 100 | 2670 | 0.000267 | 63 | 
11 | CCCCCCc1cccc(CCCCCC)[n+]1C |  |  |  | 12 | 12 | 333000 | 0.00383 | 4.3 | 
12 | C[N+]1(CCc2ccccc2)CCC(C(=O)c2ccc(Cl)cc2)CC1 (configuration not stated) |  |  |  | 48 | 18 | 800000 | 0.00583 | 2.9 | 
13 | CCCCCCC[N+](CC)(CC)CC#Cc1ccc(Cl)cc1 |  |  |  | 1.8 | 1.2 | 2.83e+06 | 0.00217 | 7.7 | 
14 | CCCCCCCCCCc1cccc(CCCCCCCCCC)[n+]1C |  |  |  | 17 | 37 | 28300 | 0.00107 | 16 | 
15 | C[n+]1c(C#Cc2ccc(-c3ccccc3)cc2)cccc1C#Cc1ccc(-c2ccccc2)cc1 |  |  |  | 86 | 132 | 1250 | 0.000158 | 105 | 107
16 | C(#Cc1cccc(C#Cc2ccc(-c3ccccc3)cc2)n1)c1ccc(-c2ccccc2)cc1 |  |  |  | > 100000 |  |  |  |  | 
17 | Cc1ccc(-c2ccc(C#Cc3cccc(C#Cc4ccc(-c5ccc(C)cc5)cc4)[n+]3C)cc2)cc1 | 1430 | 0.00055 | 30 | 303 | 440 |  |  |  | 
18 | O=C(N(CCOc1ccc([N+](=O)[O-])cc1)CCc1ccc([N+](=O)[O-])cc1)C(F)(F)F |  |  |  | 355 | 247 | 41700 | 0.0102 | 1.6 | 
19 | O=C(c1ccc(Cl)cc1)C1CCN(CCc2ccc(Cl)c(Cl)c2)CC1 |  |  |  | 54 | 36 | 350000 | 0.0065 | 2.6 | 
20 | O=[N+]([O-])c1ccc(CCNCCOc2ccc([N+](=O)[O-])cc2)cc1 |  |  |  | 47 | 53 | 90000 | 0.0045 | 3.7 | 
21 | CN(CCOc1ccc(Cl)c(Cl)c1)CCc1ccc(Cl)c(Cl)c1 | 1030 | 0.00317 | 5.3 | 5570 | 5810 |  |  |  | 
22 | COc1ccc(CCN(C)CCOc2ccccc2)cc1 | 9330 | 0.005 | 3.3 | 944 | 591 |  |  |  | 
23 | CCCCCCCc1cccc(CCCCCCC)[n+]1C | 4.17e+06 | 0.00167 | 10 | 0.28 | 0.44 |  |  |  | 
24 | CCCCCCCCCCCCc1cccc(CCCCCCCCCCCC)[n+]1C | 3000 | 0.000467 | 36 | 108 | 153 |  |  |  | 
25 | CCCN(CC)CC#Cc1ccc(C)cc1 | 5170 | 0.0025 | 6.7 | 1200 | 637 |  |  |  | 
26 | CN(CCOc1ccc([N+](=O)[O-])cc1)CCc1ccc([N+](=O)[O-])cc1 |  |  |  | 24 | 20 | 683000 | 0.0137 | 1.2 | 
27 | CCCCCCCCCc1cccc(CCCCCCCCC)[n+]1C | 300000 | 0.00115 | 14 | 3.4 | 4 |  |  |  | 
28 | O=C(c1ccccc1)N1CCN(CCc2ccccc2)CC1 | 4500 | 0.00767 | 2.2 | 5420 | 1810 |  |  |  | 
29 | CCCCCCCCc1cccc(CCCCCCCC)n1 |  |  |  | 36900 | 191000 | 4.67 | 0.000867 | 19 | 
30 | Cc1ccccc1-c1ccc(C#Cc2cccc(C#Cc3ccc(-c4ccccc4C)cc3)[n+]2C)cc1 |  |  |  | 577 | 203 | 5830 | 0.00118 | 14 | 
